Data from PMC8379669 (Computational and Structural Biotechnology Journal, 2021).

Experiments:
[1] = biological target: GluN2B containing NMDAR (GluN1/GluN2B) in HEK-293 cells (Homo sapiens, UniProt Q05586+Q13224); experiment: Cell-based NMDAR activity assay; conditions: for inhibition at 100 µM / inhibition at 50 µM: HEK293, read-out: inhibition of NMDAR activity; for category of NMDAR inhibitor: based on NMDAR IC50; for antagonism of NMDAR activity, in words: initial screening studies
[2] = system: MSG induced cognitive impairment in rats; experiment: Morris water maze test in MSG treated rats; assay type: in vivo; conditions: rat, IP, 3 mg/Kg body weight with MSG 4 g/Kg; vs MSG alone
[3] = biological target: AChE from Electrophorus electricus (electric eel) (Electrophorus electricus, UniProt O42275); experiment: In vitro AChE inhibition assay; assay type: biochemical
AChE from Electrophorus electricus (electric eel), sequence (O42275 24-633): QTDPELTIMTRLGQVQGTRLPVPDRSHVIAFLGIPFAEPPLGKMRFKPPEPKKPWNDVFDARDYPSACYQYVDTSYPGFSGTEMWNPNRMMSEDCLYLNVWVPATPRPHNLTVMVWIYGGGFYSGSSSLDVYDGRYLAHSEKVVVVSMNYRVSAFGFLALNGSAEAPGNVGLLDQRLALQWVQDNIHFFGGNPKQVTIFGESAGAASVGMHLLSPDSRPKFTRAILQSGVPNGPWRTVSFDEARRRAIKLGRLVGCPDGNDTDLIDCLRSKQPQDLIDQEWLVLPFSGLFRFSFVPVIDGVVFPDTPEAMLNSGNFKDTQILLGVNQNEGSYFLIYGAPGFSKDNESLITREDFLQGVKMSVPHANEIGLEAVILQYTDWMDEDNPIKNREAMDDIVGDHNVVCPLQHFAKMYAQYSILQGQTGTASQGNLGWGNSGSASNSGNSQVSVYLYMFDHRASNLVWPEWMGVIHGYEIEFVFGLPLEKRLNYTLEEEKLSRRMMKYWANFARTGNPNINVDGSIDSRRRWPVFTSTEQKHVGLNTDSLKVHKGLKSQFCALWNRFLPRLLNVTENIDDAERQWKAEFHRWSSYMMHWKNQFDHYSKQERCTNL

HepG2 cells = experiment: MTT cytotoxicity assay on HepG2 cells; conditions: 24 h
[4] = system: rat primary cortical neurons; experiment: Glutamate-induced excitotoxicity, MTT assay; assay type: cell-based; conditions: DIV9 neurons, glutamate 3 h, MTT after 24 h; pre-treatment with compounds
BChE from equine serum = BChE from equine serum (Equus caballus, UniProt P81908); experiment: biochemical; assay type: biochemical; conditions: for IC50 values (mean ± SD) BChE: BChE from equine serum
BChE from equine serum, sequence (P81908 whole entry): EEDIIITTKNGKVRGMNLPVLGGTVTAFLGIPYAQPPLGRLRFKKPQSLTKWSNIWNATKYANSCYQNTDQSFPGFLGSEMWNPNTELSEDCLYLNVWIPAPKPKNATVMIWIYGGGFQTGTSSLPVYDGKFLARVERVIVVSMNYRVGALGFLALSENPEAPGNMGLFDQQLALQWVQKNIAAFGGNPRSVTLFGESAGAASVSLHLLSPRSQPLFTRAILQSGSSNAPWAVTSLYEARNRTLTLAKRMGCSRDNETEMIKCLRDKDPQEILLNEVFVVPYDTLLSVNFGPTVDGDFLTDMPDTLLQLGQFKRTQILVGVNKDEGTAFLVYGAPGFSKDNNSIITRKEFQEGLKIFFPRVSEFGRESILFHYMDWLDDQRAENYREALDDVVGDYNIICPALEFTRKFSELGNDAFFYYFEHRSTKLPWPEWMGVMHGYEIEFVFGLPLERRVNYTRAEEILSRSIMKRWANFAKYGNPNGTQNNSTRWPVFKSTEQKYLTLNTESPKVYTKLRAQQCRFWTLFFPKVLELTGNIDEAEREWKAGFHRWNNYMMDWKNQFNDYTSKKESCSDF

rat liver = experiment: In vivo hepatotoxicity assessment by liver histopathology; conditions: IP, 15 days; for liver histopathology (H&E), in words: 201 3 mg/Kg, 208 1 mg/Kg, tacrine 5 mg/Kg
[5] = system: rat primary cortical neurons; experiment: Glutamate-induced excitotoxicity, MAP2 immunostaining and DAPI staining; assay type: cell-based; conditions: DIV9 neurons, 100 µM glutamate and 10 µM glycine
AChE = conditions: read-out: IC50 (AChEI); cited from earlier work
NMDAR = conditions: read-out: IC50 NMDAR, reported value; cited from earlier work

GluN2B containing NMDAR (GluN1/GluN2B) in HEK-293 cells, sequence (Q13224 27-1484, species assumed, other chains not shown): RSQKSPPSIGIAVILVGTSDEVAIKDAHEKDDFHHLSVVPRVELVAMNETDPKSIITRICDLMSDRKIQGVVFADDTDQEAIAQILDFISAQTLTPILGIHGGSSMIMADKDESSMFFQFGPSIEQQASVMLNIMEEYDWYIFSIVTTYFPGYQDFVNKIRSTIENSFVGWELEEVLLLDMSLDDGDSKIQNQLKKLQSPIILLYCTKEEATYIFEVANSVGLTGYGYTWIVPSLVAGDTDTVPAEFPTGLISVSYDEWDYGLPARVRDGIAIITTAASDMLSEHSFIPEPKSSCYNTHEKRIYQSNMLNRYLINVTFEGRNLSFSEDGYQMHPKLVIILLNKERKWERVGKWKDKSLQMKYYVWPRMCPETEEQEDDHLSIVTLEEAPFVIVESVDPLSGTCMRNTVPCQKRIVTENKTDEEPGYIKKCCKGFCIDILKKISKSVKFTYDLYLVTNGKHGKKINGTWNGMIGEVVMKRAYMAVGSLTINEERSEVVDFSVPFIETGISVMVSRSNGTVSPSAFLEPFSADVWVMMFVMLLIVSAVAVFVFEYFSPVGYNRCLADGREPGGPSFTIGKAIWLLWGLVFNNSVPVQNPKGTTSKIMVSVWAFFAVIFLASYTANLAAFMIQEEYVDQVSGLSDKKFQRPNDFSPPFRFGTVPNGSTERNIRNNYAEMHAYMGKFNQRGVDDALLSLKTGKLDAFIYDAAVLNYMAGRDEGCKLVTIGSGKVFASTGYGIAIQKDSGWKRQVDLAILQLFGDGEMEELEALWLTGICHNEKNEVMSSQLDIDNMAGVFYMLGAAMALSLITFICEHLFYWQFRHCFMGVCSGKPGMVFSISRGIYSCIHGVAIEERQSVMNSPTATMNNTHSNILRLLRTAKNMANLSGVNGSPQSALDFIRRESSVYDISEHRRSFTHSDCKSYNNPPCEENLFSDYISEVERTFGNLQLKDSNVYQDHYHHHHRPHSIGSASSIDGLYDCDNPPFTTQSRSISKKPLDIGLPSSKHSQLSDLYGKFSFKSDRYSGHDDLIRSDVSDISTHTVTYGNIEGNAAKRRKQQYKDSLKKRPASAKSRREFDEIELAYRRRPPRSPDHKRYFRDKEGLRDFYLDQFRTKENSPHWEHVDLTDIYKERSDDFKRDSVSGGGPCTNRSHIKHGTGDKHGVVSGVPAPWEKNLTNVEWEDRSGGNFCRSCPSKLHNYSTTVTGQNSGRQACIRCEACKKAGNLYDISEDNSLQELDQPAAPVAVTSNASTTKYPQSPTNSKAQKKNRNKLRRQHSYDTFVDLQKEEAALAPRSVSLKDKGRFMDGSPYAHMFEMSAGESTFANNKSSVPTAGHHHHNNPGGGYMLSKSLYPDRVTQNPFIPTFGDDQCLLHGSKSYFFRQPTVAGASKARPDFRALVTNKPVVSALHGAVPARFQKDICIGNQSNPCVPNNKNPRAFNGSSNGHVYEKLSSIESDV

Compound	IC50 [1] [nM]	inhibition at 100 µM [1] [%]	category of NMDAR inhibitor [1]	antagonism of NMDAR activity, in words [1]	IC50 [3] [nM]	reduction in neuronal viability by glutamate (MTT assay) [4]	IC50 (BChE from equine serum) [nM]	IC50 values (mean ± SD) BChE (BChE from equine serum)	liver histopathology (H&E), in words (rat liver)	condensed nuclei / viable cells (DAPI staining) after glutamate [5]	decrease in MAP2 positive cells and loss of neuronal architecture caused by glutamate [5]	fold higher NMDAR inhibitory potency compared to reported value for tacrine [1] [fold]	inhibition at 50 µM [1] [%]	IC50 (AChE) [nM]	further results
Cn1cc(-c2ccc3c(N)c4c(nc3c2)CCCC4)cn1 [Compound 201, 6-(1-methyl-1H-pyrazol-4-yl)-1,2,3,4-tetrahydroacridin-9-amine]	15200 ± 6140	~100	moderate (moderate (IC50 < 20 μM))	effective in antagonizing NMDAR activity	40.9 ± 4.82	averted	850 ± 10	submicromolar	did not show any change in the liver architecture	clear decrease in the number of condensed nuclei	prevented				escape latency in MWM, 5 days [2]: significantly reduced the escape latency; cytotoxicity on HepG2 cells, in words (HepG2 cells; 10-300 μM): non-toxic
Nc1c2c(nc3cc(-c4ccccc4F)ccc13)CCCC2 [Compound 208, 6-(2-fluorophenyl)-1,2,3,4-tetrahydroacridin-9-amine]	310 ± 90	~100	potent (potent (IC50 < 5 μM))	effective in antagonizing NMDAR activity	75.1 ± 9.46	averted	130 ± 20	submicromolar	mild periportal inflammation or mild congestion	clear decrease in the number of condensed nuclei	prevented	~600	~100		number of punctate cells ([1]; 5 μM, with NMDAR agonists and Ca2+ (Fig. 2B)): Reduction in the number of punctate cells; selectivity between AChE and BChE, in words ([3]; AChE from electric eel vs BChE from equine serum): comparable inhibitory potency towards both AChE and BChE; animals showing mild periportal inflammation or congestion (rat liver): 5 out of 6 animals
CSc1ccc(-c2ccc3c(N)c4c(nc3c2)CCCC4)cc1 [Compound 210, 6-(4-(methylthio)phenyl)-1,2,3,4-tetrahydroacridin-9-amine]	270 ± 50	~100	potent (potent (IC50 < 5 μM))	effective in antagonizing NMDAR activity	149 ± 16.8	averted	940 ± 120	submicromolar		clear decrease in the number of condensed nuclei	prevented	~600	~100		
Nc1c2c(nc3ccccc13)CCCC2 [tacrine, reference compound]															concentration up to which safe on HepG2 cells (HepG2 cells): up to 50 µM; reduction in cell viability (HepG2 cells; HepG2, 300 µM): ~50%; IC50 (NMDAR): 193000 ± 33000 nM
